Values joined by “and” are separate entries in the source; they are usually repeats but may differ in a detail not shown here. Equal entries are not always repeated.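 Five concentrations, 48 hours, 96-well plates. GI50 = concentration required for 50% inhibition of growth. TGI: concentration producing complete growth inhibition.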 Where only a bound is given, the exact number is not on record here.

Test systems include COLO 205 colon; DU-145 prostate; M14 melanoma; IGROV1 ovarian; SN12C renal; A498 renal; OVCAR-3 ovarian; HT29 colon; OVCAR-5 ovarian; ACHN renal.
Common to all, as to test: NCI-60 cell line screen, 48 h

With `COc1ccc(-c2cc(=O)c3c(O)c(OC)c(OC)c(OC)c3o2)cc1`, the TGI with COLO 205 colon is more than 100 µM; with DU-145 prostate it was more than 100 µM; in the assay with M14 melanoma it was more than 100 µM; in the assay on IGROV1 ovarian, more than 100 µM; with SN12C renal, more than 100 µM; in the assay on A498 renal, more than 27.6 µM. The TGI in the assay on OVCAR-3 ovarian, with HT29 colon, with OVCAR-5 ovarian and in the assay with ACHN renal was more than 100 µM in each case.
For `CCC1=C(CC2NCCc3ccccc32)CC2c3cc(OC)c(OC)cc3CCN2C1` (stereo not drawn), the GI50 in the assay on COLO 205 colon was 1.81 µM and 0.199 µM; in the assay on DU-145 prostate, 3.24 µM; with M14 melanoma it was 4.53 µM; in the assay with IGROV1 ovarian, 4.39 µM; with SN12C renal, 4.92 µM; with A498 renal it was 4.25 µM. Moreover, the GI50 was 3.61 µM in the assay with OVCAR-3 ovarian, 3.31 µM with HT29 colon, 6.15 µM with OVCAR-5 ovarian and 3.96 µM in the assay with ACHN renal. Moreover, the TGI with COLO 205 colon was 4.13 µM and 0.547 µM; in the assay on DU-145 prostate it was 12.7 µM and 2.59 µM; in the assay with M14 melanoma, 16 µM and 3.49 µM; with IGROV1 ovarian, 21.6 µM and 19 µM; with SN12C renal, 35.6 µM and 7.34 µM; in the assay on A498 renal it was 19.6 µM and 5.8 µM. For the same compound, the TGI with OVCAR-3 ovarian was 19 µM and 11.3 µM; with HT29 colon it was 11.8 µM and 4.53 µM; in the assay on ACHN renal, 37.6 µM and 3.9 µM.
With `COc1cc(CNc2oc(-c3ccccc3)c(-c3ccccc3)c2C#N)cc(CN2CCN(C)CC2)c1O`, the GI50 in the assay on COLO 205 colon was 1.98 µM; in the assay with DU-145 prostate, 1.99 µM; with M14 melanoma, 1.78 µM; with IGROV1 ovarian, 1.58 µM; in the assay with SN12C renal it was 3.95 µM; with A498 renal, 1.55 µM. Further, the GI50 in the assay on OVCAR-3 ovarian is 1.76 µM; in the assay on HT29 colon, 1.92 µM; with OVCAR-5 ovarian it was 1.73 µM; in the assay on ACHN renal it was 1.8 µM. Moreover, the TGI in the assay on COLO 205 colon worked out at 4.05 µM; with DU-145 prostate it was 4.03 µM; in the assay with M14 melanoma, 3.65 µM; in the assay with IGROV1 ovarian it was 3.25 µM; in the assay on SN12C renal, 15.3 µM; in the assay on A498 renal it was 3.48 µM. The TGI with OVCAR-3 ovarian was determined as 3.21 µM; in the assay with HT29 colon, 3.99 µM; in the assay with OVCAR-5 ovarian it was 3.55 µM; with ACHN renal, 3.19 µM.
Take `O=C(Nc1cccc(C(F)(F)F)c1)Oc1ccc(Cl)c2cccnc12`: the GI50 is 2.48 µM with COLO 205 colon; 2.38 µM in the assay with DU-145 prostate; 1.49 µM in the assay with M14 melanoma; 1.22 µM with IGROV1 ovarian; 1.85 µM in the assay on SN12C renal; 3.82 µM in the assay on A498 renal. Moreover, the GI50 with OVCAR-3 ovarian was 0.832 µM; in the assay with HT29 colon it was 3.9 µM; in the assay on OVCAR-5 ovarian, 3.6 µM; with ACHN renal it was 1.23 µM. For the same compound, the TGI in the assay on COLO 205 colon came to 6.39 µM; in the assay with DU-145 prostate it was 15.8 µM; with M14 melanoma, 7.83 µM; in the assay on IGROV1 ovarian it was 4.43 µM; with SN12C renal, 7.89 µM; in the assay on A498 renal it was 12.4 µM. For the same compound, the TGI with OVCAR-3 ovarian is 6.93 µM; in the assay on HT29 colon it was 14.1 µM; with OVCAR-5 ovarian, 18 µM; in the assay with ACHN renal, 5.43 µM.
For `COc1cc2nccc(Oc3ccc(NC(=O)c4cn(C(C)C)c(=O)n(-c5ccc(F)cc5)c4=O)cc3F)c2cc1OC`, the GI50 with COLO 205 colon was more than 100 µM; in the assay with DU-145 prostate, more than 100 µM; in the assay on M14 melanoma, 63.3 µM; in the assay with SN12C renal it was 2.81 µM; in the assay on A498 renal it was 1.64 µM; with OVCAR-3 ovarian it was more than 41.4 µM. Besides, the GI50 in the assay with HT29 colon is 6.25 µM; in the assay with OVCAR-5 ovarian, 5.6 µM; with ACHN renal, 2.69 µM. For the same compound, the TGI with COLO 205 colon was more than 100 µM; in the assay on DU-145 prostate, more than 100 µM; in the assay with M14 melanoma, more than 100 µM; with IGROV1 ovarian it was more than 100 µM; with SN12C renal it was more than 100 µM; in the assay on A498 renal, 6.27 µM. In addition, the TGI was more than 100 µM in the assay with OVCAR-3 ovarian, more than 100 µM in the assay on HT29 colon, more than 100 µM in the assay on OVCAR-5 ovarian and more than 26.3 µM in the assay on ACHN renal.
For the compound `N#Cc1cccc(C2C3=C(COC3=O)N(CCO)c3cc4c(cc32)OCO4)c1` (stereo not drawn), the GI50 with COLO 205 colon is 1.58 µM; in the assay with DU-145 prostate, 3 µM; in the assay on M14 melanoma, 0.806 µM; in the assay on IGROV1 ovarian, 8.08 µM; in the assay on SN12C renal it was 3.81 µM; in the assay on A498 renal it was 1.2 µM. The GI50 in the assay with OVCAR-3 ovarian was 1.35 µM; in the assay on HT29 colon, 1.49 µM; with OVCAR-5 ovarian it was 7.92 µM; in the assay with ACHN renal, 3.53 µM. The TGI in the assay on COLO 205 colon was more than 50 µM; in the assay on DU-145 prostate, more than 50 µM; in the assay on M14 melanoma, more than 50 µM; in the assay with IGROV1 ovarian it was more than 50 µM; with SN12C renal, more than 50 µM; in the assay on A498 renal, 4.14 µM. Besides, the TGI with OVCAR-3 ovarian, in the assay on HT29 colon, in the assay with OVCAR-5 ovarian and in the assay with ACHN renal was more than 50 µM each time.
For `CC/C(=C/c1ccc(OC)cc1OC)[N+](=O)[O-]`, the GI50 in the assay on COLO 205 colon was 2.04 µM; in the assay with DU-145 prostate, 3.61 µM; with M14 melanoma, 2.44 µM; in the assay on IGROV1 ovarian it was 3.4 µM; in the assay with SN12C renal, 2.31 µM; with A498 renal, 2.75 µM. The GI50 with OVCAR-3 ovarian was 1.84 µM; in the assay on HT29 colon, 3.37 µM; in the assay on OVCAR-5 ovarian, 7.59 µM; with ACHN renal it was 2.14 µM. The TGI worked out at 4.24 µM with COLO 205 colon; 13.8 µM in the assay on DU-145 prostate; 8.53 µM in the assay on M14 melanoma; 11.5 µM with IGROV1 ovarian; 6.61 µM with SN12C renal; 10.2 µM in the assay on A498 renal. For the same compound, the TGI in the assay on OVCAR-3 ovarian came out at 3.38 µM; with HT29 colon it was 11.1 µM; in the assay with OVCAR-5 ovarian, 22.2 µM; in the assay with ACHN renal, 4.63 µM.
For `CC(C)(C)OC(=O)Nc1ccc2c(c1)C(NC(=O)Nc1cccc(C#N)c1)CC(C)(C)O2` (stereo not drawn), the GI50 in the assay on COLO 205 colon is 3.46 µM; in the assay on DU-145 prostate, 6.5 µM; with M14 melanoma, 3.73 µM; in the assay on IGROV1 ovarian, 4.44 µM; in the assay with SN12C renal, 4.57 µM; in the assay on A498 renal, 7.14 µM. Moreover, the GI50 is 2.15 µM in the assay on OVCAR-3 ovarian, 6.71 µM with HT29 colon, 28 µM with OVCAR-5 ovarian and 3.99 µM with ACHN renal. Moreover, the TGI in the assay on COLO 205 colon was 15.3 µM; in the assay on DU-145 prostate it was more than 100 µM; with M14 melanoma, 40.5 µM; with IGROV1 ovarian, more than 100 µM; in the assay on SN12C renal it was more than 100 µM; in the assay with A498 renal, more than 100 µM. The TGI with OVCAR-3 ovarian, with HT29 colon, with OVCAR-5 ovarian and with ACHN renal was more than 100 µM each time.

The values are drawn from PubChem BioAssay (NCI).
